# Residue numbers refer to the chain shown, from its start. Where two headings read alike, the source gives them in different places.
# How the values were obtained:
# OR7D4 = target: T1, OR7D4 (Homo sapiens, UniProt Q8NG98, D296E/E302K/G299D); assay: cell-based; format: cell-based; details: for EC50: read-out: Potency EC50
# T1 construct: expressed in transfected cells; host or cells: HEK293T cells stably expressing human RTP1S (V227I) and RTP2 (L220R)
# T1 sequence (Q8NG98 with tags, fused parts or gaps D296E/G299D/E302K limits assumed): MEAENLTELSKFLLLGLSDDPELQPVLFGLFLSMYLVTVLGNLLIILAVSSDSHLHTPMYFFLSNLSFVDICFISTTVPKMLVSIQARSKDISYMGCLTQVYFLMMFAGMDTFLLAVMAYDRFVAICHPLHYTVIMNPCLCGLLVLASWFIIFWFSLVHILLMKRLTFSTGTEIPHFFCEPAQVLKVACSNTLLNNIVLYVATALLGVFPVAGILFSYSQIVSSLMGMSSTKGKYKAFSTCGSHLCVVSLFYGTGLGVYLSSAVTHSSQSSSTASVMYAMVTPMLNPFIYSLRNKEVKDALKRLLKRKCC
# From the text: (§1) To create an expression plasmid, an OR coding sequence fused at the end of TM7 to the desired C-terminus sequence was synthesized by a DNA synthesis service provider (BioCat GmbH, Germany) and inserted into pcDNA3.1(+) (Invitrogen, MA, USA) downstream of the CMV promoter sequence (SEQ ID NO: 82) using BamHI and Notl restriction sites. All the synthetic OR nucleotide sequences described below in Examples 1-15 further contained at their N-terminus a nucleotide sequence encoding a signal peptide (mmLucy-FLAG-rho, SeQ ID NOs: 80, 81) and at the C-terminus the bgh terminator sequence (SEQ ID NO: 83). All the OR expression plasmids also contain a Kozak sequence (GCCACC) between the BamHI restriction site and the start codon of the signal peptide. These plasmids thus contain a constitutively expressed OR gene.
# Similarly, in Figure 7 the dose-response of OR7D4 is shown when tested both with androstenone and the closely related molecule androstenol. […] Thus, a better understanding of the receptive space of OR7D4 is possible based on the improved sensitivity of the assay provided by the modified variant.
# OR2M2 = assay: Activation of modified OR2M2 by sulfur compounds in presence of copper (luciferase); format: cell-based, human; details: modified C-terminus
# From the text: The most pungent odorant in human axillary sweat with an ODT of 1 picogram / L air is 3-methyl-3-sulfanyl-hexanol (also known as 3-methyl-3-mercapto-hexanol) (Natsch et al. identification of Odoriferous Sulfanylalkanols in Human Axilla Secretions and Their Formation through Cleavage of Cysteine Precursors by a C-S Lyase Isolated from Axilla bacteria. […] 2004; 1:1058-1072). So far, no OR has been described which can selectively detect this key odorant leading to undesired axilla odor in human subjects. By screening a library of receptor variants with the C-terminal sequence SEQ ID NO: 86 in presence of copper against a library of 52 sulfur compounds (see example 5), a hitherto orphan receptor, OR2M2, was identified, which is activated by 3-methyl-3-mercapto-hexanol and closely related chemicals, but not by other sulfur odorants (Figure 19).
# OR56A4 = target: T2, OR56A4 (Homo sapiens, UniProt Q8NGH8); assay: cell-based; format: cell-based; details: wild-type
# T2 construct: expressed in transfected cells; host or cells: HEK293T stably expressing human RTP1S(V227I) and RTP2(L220R)
# T2 sequence (Q8NGH8 1-313): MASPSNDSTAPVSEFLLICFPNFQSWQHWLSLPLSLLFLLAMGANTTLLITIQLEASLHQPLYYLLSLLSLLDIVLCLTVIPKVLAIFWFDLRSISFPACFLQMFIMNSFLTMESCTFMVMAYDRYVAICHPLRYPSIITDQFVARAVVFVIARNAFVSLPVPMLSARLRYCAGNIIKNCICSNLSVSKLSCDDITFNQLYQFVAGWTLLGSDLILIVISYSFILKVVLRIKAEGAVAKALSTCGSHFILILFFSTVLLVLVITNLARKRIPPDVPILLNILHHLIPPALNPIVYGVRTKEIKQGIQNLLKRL
# From the text: as §1
# Activation of OR56A4 by acids of different chain length was further tested. […] Replacing the wild-type with the C-terminal sequence of the functional OR51 E1 did reduce activity. However, using the optimized sequence form Examples 1-5 led to a strong signal and much lower detection threshold upon addition of all three acids.
# OR10J5 [1] = assay: cell-based; format: cell-based, human
# From the text: as §1
# OR10J5 [2] = target: T3, OR10J5 (Homo sapiens, UniProt Q8NHC4); assay: cell-based; format: cell-based
# T3 construct: expressed in transfected cells; host or cells: HEK293T cells stably expressing human RTP1S (V227I) and RTP2 (L220R)
# T3 sequence (Q8NHC4 1-309): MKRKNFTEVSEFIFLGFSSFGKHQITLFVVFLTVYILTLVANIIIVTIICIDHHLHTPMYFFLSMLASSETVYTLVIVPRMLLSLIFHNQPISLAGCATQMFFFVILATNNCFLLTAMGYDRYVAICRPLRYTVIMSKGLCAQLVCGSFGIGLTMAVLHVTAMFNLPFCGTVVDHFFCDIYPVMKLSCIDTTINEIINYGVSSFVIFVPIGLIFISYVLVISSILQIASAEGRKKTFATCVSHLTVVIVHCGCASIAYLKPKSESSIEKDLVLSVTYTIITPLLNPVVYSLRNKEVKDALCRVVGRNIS
# From the text: as §1
# OR10J5 [3] = target: T4, OR10J5 (Homo sapiens, UniProt Q8NHC4); assay: cell-based; format: cell-based; remark: listed apart in the source
# T4 construct: expressed in transfected cells; host or cells: HEK293T cells stably expressing human RTP1S (V227I) and RTP2 (L220R)
# T4 sequence (Q8NHC4 with tags, fused parts or gaps): T3 sequence (Q8NHC4 1-309) with C301K, V303L, V304L, G305K, N307K, I308C, S309C
# From the text: as §1
# OR5B12 [4] = assay: cell-based; format: cell-based, human
# From the text: as §1
# OR5B12 [5] = target: T5, OR5B12 (Homo sapiens, UniProt Q96R08); assay: cell-based; format: cell-based; details: wild-type
# T5 construct: expressed in transfected cells; host or cells: HEK293T cells stably expressing human RTP1S (V227I) and RTP2 (L220R)
# T5 sequence (Q96R08 1-314): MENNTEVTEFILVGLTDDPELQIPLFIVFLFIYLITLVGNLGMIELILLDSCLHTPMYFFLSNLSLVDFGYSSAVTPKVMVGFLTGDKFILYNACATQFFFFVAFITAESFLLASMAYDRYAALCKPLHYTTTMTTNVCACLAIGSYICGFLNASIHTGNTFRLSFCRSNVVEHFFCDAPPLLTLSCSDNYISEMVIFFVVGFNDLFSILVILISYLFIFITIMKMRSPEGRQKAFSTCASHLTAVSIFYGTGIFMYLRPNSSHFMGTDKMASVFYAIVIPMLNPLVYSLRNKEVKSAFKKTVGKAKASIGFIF
# From the text: as §1
# OR5B12 [6] = target: T6, OR5B12 (Homo sapiens, UniProt Q96R08); assay: cell-based; format: cell-based
# T6 construct: expressed in transfected cells; host or cells: HEK293T cells stably expressing human RTP1S (V227I) and RTP2 (L220R)
# T6 sequence (Q96R08 with tags, fused parts or gaps): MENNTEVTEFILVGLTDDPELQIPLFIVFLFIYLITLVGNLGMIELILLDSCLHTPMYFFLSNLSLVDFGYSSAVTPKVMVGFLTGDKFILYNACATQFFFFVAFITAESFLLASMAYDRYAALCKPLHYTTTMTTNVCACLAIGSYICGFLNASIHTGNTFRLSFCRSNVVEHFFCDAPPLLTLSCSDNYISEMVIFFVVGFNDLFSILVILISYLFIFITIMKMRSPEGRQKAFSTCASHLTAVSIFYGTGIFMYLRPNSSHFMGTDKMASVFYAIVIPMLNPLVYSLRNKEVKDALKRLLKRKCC
# From the text: as §1
# [7] = changed C-term SEQ ID NO: 86, read-out: Potency EC50
smiles,measurement,setting,value
C[C@]12CC[C@@H](O)C[C@@H]1CC[C@@H]1[C@@H]2CC[C@]2(C)C=CC[C@@H]12 [androstenol],activation of OR7D4 wild-type vs modified,OR7D4,can only activate the modified version of the receptor
C[C@]12CCC(=O)C[C@@H]1CC[C@@H]1[C@@H]2CC[C@]2(C)C=CC[C@@H]12 [Androstenone],Comments on efficacy,OR7D4,3-fold lower maximal induction for wild-type
same,Fold-improvement potency,OR7D4,66
same,EC50,OR7D4; changed C-term SEQ ID NO: 86,0.13 µM
same,EC50,OR7D4; wild-type,8.44 µM
"C=C(C)C1CCC2=CC(=O)CC(C)C2(C)C1 (stereo not shown) [Nootkatone, 5,6-Dimethyl-8-iso-propenylbicyclo-(4,4,0)-dec-1-en-3-one]",activation of OR2M2,OR2M2,activated
CCCCCCCCCC(=O)O [decanoic acid],activation of wild-type OR56A4,OR56A4,activated at high concentration
CC1=CCC(C(C)(C)S)CC1 (stereo not shown) [1-p-Menthene-8-thiol],activation of OR2M2,OR2M2,activated
"Cc1cc(CC(C)C)ccc1CCC=O [Nympheal, 3-(4-isobutyl-2-methylphenyl)propanal]",Comments on efficacy,OR10J5 [1],"Only 1.8-fold induction for WT, but 5.5-fold for changed C-terminus"
same,Fold-improvement potency,OR10J5 [1],>>6
same,Fold-improvement threshold,OR10J5 [1],>>6
same,Detection threshold; concentration for 2-fold induction,OR10J5 [2],"n.i. (>31 µM, at cytotoxic dose)"
same,EC50,"OR10J5 [2]; wild-type, read-out: Potency EC50",> 31 µM
same,Detection threshold; concentration for 2-fold induction,OR10J5 [3],5.64 µM
same,EC50,OR10J5 [3]; [7],6.2 µM
CCCCCC1C(=O)CCC1CC(=O)OC (stereo not shown) [Hedione HC],Comments on efficacy,OR5B12 [4],4-fold lower maximal induction for wild-type
same,Fold-improvement potency,OR5B12 [4],3.8
same,Fold-improvement threshold,OR5B12 [4],11
same,Detection threshold; concentration for 2-fold induction,OR5B12 [5],96 µM
same,EC50,OR5B12 [5]; read-out: Potency EC50,69 µM
same,EC50,OR5B12 [6]; [7],18.3 µM
same,Detection threshold; concentration for 2-fold induction,OR5B12 [6]; changed C-term. SEQ ID NO: 86,8.8 µM
